Values of other authors in patent publication US20230338402A1, “TREATMENT REGIMEN FOR CANCER USING IMMUNOMODULATION” (BioXcel Therapeutics, Inc., priority 2020, published 2023).
Where a name gives a salt, the structure may show the parent alone.

What was measured:
melanoma = melanoma patients
CYP3A4 [1] = biological target: CYP3A4 (Homo sapiens, UniProt P08684)
CYP2C9 = CYP2C9 (Homo sapiens, UniProt P11712)
CYP2D6 = CYP2D6 (Homo sapiens, UniProt P10635)
CYP1A2 [2] = biological target: T1, CYP1A2 (Homo sapiens, UniProt P05177); conditions: human liver CYP isoenzymes, preclinical studies
T1 sequence (P05177 1-516): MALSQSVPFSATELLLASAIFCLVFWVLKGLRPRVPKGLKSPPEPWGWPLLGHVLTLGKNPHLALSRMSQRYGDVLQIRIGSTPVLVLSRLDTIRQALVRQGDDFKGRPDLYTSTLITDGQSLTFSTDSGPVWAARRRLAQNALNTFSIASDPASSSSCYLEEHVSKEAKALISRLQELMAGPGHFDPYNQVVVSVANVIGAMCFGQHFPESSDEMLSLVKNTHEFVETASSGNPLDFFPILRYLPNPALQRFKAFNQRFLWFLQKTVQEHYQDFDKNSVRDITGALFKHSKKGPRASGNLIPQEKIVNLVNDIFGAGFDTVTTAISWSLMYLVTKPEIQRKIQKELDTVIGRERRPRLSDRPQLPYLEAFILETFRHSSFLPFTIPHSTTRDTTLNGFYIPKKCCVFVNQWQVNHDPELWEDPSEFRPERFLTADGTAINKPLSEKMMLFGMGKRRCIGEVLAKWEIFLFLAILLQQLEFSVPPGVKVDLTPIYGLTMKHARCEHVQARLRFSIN

CYP3A4 [3] = tested on: CYP3A4
CYP2C8 = biological target: T2, CYP2C8 (Homo sapiens, UniProt P10632)
T2 sequence (P10632 1-490): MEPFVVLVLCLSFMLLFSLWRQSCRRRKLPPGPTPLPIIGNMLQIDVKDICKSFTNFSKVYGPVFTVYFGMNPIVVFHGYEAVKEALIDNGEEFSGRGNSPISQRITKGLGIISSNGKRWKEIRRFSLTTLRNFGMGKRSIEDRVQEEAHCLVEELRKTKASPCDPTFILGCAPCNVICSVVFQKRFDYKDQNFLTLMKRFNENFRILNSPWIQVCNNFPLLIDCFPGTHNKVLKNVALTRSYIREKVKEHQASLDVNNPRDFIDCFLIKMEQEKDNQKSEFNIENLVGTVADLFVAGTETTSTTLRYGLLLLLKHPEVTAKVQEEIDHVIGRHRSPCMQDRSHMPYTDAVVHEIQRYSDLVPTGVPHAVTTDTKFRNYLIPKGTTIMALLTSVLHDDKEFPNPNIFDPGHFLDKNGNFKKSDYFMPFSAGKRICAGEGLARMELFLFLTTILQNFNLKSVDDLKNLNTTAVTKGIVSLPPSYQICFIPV

CYP2C19 = CYP2C19 (Homo sapiens, UniProt P33261)
Chain of CYP2C19 (P33261 whole entry): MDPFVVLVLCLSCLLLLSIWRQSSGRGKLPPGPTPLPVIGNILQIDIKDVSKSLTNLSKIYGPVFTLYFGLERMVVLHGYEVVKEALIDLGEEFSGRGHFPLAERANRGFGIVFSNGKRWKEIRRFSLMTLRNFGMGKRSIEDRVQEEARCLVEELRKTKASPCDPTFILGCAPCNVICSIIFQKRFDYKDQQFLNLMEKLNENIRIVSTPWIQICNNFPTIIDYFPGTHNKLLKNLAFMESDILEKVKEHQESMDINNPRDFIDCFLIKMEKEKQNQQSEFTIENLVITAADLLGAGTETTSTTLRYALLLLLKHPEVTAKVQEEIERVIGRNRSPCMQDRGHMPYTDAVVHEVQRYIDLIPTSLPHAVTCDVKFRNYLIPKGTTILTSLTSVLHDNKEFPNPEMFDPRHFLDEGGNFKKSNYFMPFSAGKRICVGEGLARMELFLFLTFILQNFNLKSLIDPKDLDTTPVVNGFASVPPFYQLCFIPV

CYP1A2 [4] = tested on: CYP1A2

Chain of CYP3A4 (Homo sapiens, UniProt P08684) (P08684 whole entry): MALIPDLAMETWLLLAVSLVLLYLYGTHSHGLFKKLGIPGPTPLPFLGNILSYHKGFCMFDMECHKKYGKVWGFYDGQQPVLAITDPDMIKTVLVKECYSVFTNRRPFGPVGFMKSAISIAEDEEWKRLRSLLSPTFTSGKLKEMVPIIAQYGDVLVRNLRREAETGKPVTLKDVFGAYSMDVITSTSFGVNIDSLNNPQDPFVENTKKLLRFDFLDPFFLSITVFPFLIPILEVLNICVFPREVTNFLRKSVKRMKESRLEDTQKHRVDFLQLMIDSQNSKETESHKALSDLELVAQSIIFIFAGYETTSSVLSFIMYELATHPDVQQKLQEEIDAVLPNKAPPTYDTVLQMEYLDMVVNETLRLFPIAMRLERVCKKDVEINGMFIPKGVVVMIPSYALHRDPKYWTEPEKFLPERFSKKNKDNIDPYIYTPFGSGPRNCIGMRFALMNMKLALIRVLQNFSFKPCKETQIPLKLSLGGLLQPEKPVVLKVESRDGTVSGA
Chain of CYP2D6 (P10635 whole entry): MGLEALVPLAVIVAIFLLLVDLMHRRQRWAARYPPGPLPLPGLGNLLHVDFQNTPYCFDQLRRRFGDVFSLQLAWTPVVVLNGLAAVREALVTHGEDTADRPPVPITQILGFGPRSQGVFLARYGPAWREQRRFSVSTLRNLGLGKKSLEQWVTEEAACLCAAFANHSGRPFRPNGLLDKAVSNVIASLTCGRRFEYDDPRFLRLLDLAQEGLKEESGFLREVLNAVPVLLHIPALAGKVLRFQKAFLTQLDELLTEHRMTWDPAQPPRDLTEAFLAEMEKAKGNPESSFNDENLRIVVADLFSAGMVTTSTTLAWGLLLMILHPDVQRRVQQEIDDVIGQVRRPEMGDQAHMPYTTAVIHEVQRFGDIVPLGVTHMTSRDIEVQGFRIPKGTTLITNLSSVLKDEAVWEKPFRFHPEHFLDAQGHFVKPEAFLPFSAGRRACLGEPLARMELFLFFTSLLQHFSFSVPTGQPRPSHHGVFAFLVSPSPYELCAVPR
Chain of CYP2C9 (P11712 whole entry): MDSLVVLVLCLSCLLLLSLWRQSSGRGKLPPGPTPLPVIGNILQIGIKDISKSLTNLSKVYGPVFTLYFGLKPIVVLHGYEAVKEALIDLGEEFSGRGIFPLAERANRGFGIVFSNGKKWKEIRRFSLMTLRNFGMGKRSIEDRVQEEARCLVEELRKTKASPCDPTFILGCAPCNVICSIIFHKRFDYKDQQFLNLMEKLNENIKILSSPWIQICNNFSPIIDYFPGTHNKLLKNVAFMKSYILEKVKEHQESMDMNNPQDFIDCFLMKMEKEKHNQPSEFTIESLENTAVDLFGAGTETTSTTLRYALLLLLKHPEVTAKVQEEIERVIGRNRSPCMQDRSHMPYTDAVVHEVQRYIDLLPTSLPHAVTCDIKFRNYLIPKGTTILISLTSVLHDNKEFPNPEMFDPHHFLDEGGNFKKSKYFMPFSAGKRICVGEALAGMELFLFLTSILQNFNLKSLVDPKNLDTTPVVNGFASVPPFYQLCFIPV

Compound	Response rate (melanoma) [%]	Potential to inhibit CYP3A4 (CYP3A4 [1])	Potential to inhibit CYP2C9 (CYP2C9)	Potential to inhibit CYP2D6 (CYP2D6)	Potential to inhibit CYP1A2 (CYP1A2 [2])	Induction of CYP3A4 (CYP3A4 [3])	Potential to inhibit CYP2C8 (CYP2C8)	Potential to inhibit CYP2C19 (CYP2C19)	Induction of CYP1A2 (CYP1A2 [4])
Ipilimumab: CTLA-4 antagonist, immune checkpoint inhibitor antibody	11								
Nivolumab: PD-1 antagonist, immune checkpoint inhibitor antibody	32								
CC(C)[C@H](N)C(=O)N1CCC[C@H]1B(O)O [Talabostat mesylate, [(2R)-1-[(2S)-2-amino-3-methylbutanoyl]pyrrolidin-2-yl]boronic acid]		low potential	low potential	low potential	low potential	did not induce	low potential	low potential	did not induce
